# Test results published in publication PMC8154525 (Journal of the American Chemical Society, 2021).
# System: aminopeptidase M (Ap)
# Test: Ap-catalyzed cleavage of H-Arg-AMC
# Assay type: biochemical
# Conditions: read-out: KM (Ap-catalyzed cleavage); substrate of aminopeptidase M
smiles,measurement,value
Cc1cc(=O)oc2cc(NC(=O)[C@@H](N)CCCN=C(N)N)ccc12 [H-Arg-AMC],Km,5 mM
